The values below come from publication PMC9570594, “Development of Novel Pyridine-Thiazole Hybrid Molecules as Potential Anticancer Agents” (Molecules, 2022).

For assay [1], the system named is full panel of human tumor cell lines (MG_MID). Kind of assay: NCI five-dose SRB assay, full panel. It counts as cell-based. The procedure:
Using absorbance measurements [time zero (Tz), control growth in the absence of drug (C), and test growth in the presence of drug (Ti)], the percentage growth was calculated for each drug concentration. Percentage growth inhibition was calculated as:
Dose response parameters (GI50, TGI, LC50) were calculated for each compound. […] The drug concentration resulting in total growth inhibition (TGI) was calculated from Ti = Tz. […] Values were calculated for each of these parameters if the level of activity was reached; however, if the effect was not reached or was excessive, the value for that parameter was expressed as more or less than the maximum or minimum concentration tested.
In general terms: The SRB assay estimates cell density from bound dye.

Assay [2] relates to MCF-7 breast cancer cells. Kind of assay: Mitochondrial membrane potential, JC-1 (flow cytometry). The following applies: MCF-7, 5 µM, 24 h, control 5.1 ± 0.7%. It counts as cell-based, human. The procedure:
A decrease in the mitochondrial membrane potential (MMP, ΔΨm) is one of the earliest changes observed at apoptosis. […] The MCF-7 cells had depolarized mitochondria, reaching 25.3 ± 1.5% and 24.7 ± 0.4% of the cell population treated with the compound 4 and 7, respectively. In the control, there were only 5.1 ± 0.7% cells with a decreased ΔΨm.
Disruption of the MMP was assessed using the lipophilic cationic probe 5,5,6,6-tetrachloro-1,1,3,3-tetraethylbenzimidazolcarbocyanine iodide (JC-1 MitoScreen kit; BD Biosciences San Diego, CA, USA), as described previously. The entire assay was performed according to the manufacturer’s instructions provided with the purchased kit. […] Briefly, unfixed MCF-7 cells were washed and resuspended in the PBS supplemented with the JC-1 dye. Then, cells were incubated for 15 min at room temperature (RT) in the dark, washed, and resuspended in the PBS for the immediate BD FACSCanto II flow cytometry analysis.
In general terms: Flow cytometry measures light scatter and fluorescence of single cells or particles in a stream.

Where two headings read alike, the source gives them in different places.

Usually TGI stands for the concentration at which net growth stops. A lower TGI goes with more potent growth arrest. Regarding `CCOC(=O)c1ccc(NC(=O)CSC(CC(=O)c2sc(Nc3ccccn3)nc2C)c2ccccc2F)cc1` (centres unmarked) [Compound 4, Ethyl 4-[[2-[1-(2-Fluorophenyl)-3-[4-methyl-2-(2-pyridylamino)thiazol-5-yl]-3-oxopropyl]sulfanylacetyl]amino]benzoate], the GI50 was 2.52 to 8.29 µM in assay [1] (Homo sapiens, RPMI-8226, NCI-H226, SNB-75, SF 539, M14, MDA-MB-435, UO-31, RXF 393, MDA-MB-468, read-out: active concentration range (GI50) towards most sensitive lines) and 31.7 µM in assay [1] (Homo sapiens, full panel MG_MID (average GI50), 48 h, read-out: GI50). For the same compound, the LC50 (concentration giving 50% net tumour cell kill) in assay [1] (Homo sapiens, full panel, mainly) is more than 100 µM. The compound also registered a concentration for total growth inhibition (TGI) in assay [1] (full panel, mainly) of more than 100 µM. The “cells with depolarized mitochondria (decreased ΔΨm)” value in assay [2] is recorded as 25.3 ± 1.5%.
